Values after ≈ are worked out from the molar mass of the structure shown. Active and inactive are the calls of the source. The calls are words filed in the database; no cut-off is given here. Positions of bridges follow the written chain, without caps; N, C: chain ends. Non-standard residues stand in square brackets, D forms with d. Residues, ends and D or L forms follow the SMILES beside them. NMeA = CN[C@@H](C)C(=O)O
What was measured:
Type in all cases: functional
Staphylococcus aureus [1] = test: Bactericidal activity against Staphylococcus aureus NCTC 8530 planktonic forms
Staphylococcus aureus [2] = test: Antibiofilm activity against pre-established 36 hrs old bacterial biofilms of Staphylococcus aureus NCTC 8530 incubated for 4 hrs by […] LIVE/DEAD BacLight staining based confocal microscopy
Staphylococcus aureus [3] = test: Antibiofilm activity against pre-established 36 hrs old bacterial biofilms of Staphylococcus aureus NCTC 8530 incubated for 4 hrs by XTT assay
Escherichia coli [4] = test: Bactericidal activity against Escherichia coli MG1655 planktonic forms
Escherichia coli [5] = test: Antibiofilm activity against pre-established 36 hrs old bacterial biofilms of Escherichia coli MG1655 incubated for 4 hrs Antibiofilm activity against pre-established 36 hrs old bacterial biofilms of Escherichia coli MG1655 incubated for 4 hrs by LIVE/DEAD BacLight staining based confocal microscopy
Staphylococcus aureus [6] = test: Antibiofilm activity against pre-established 36 hrs old bacterial biofilms of Staphylococcus aureus NCTC 8530 assessed as reduction in number of viable bacterial cells incubated for 4 hrs by XTT assay
Escherichia coli [7] = test: Antibiofilm activity against pre-established 36 hrs old bacterial biofilms of Escherichia coli MG1655 incubated for 4 hrs by XTT assay

| SMILES | MBC (Staphylococcus aureus [1]) [µM] | Activity (Staphylococcus aureus [2]) | MBEC (Staphylococcus aureus [3]) | MBC (Escherichia coli [4]) [µM] | Activity (Escherichia coli [5]) | MBEC (Staphylococcus aureus [6]) | MBEC (Escherichia coli [7]) |
| --- | --- | --- | --- | --- | --- | --- | --- |
| CC[C@H](C)[C@@H]1NC(=O)[C@H](CCCCN)NC(=O)[C@H]([C@@H](C)O)NC(=O)[C@H](Cc2ccccc2)NC(=O)[C@H]([C@@H](C)CC)NC(=O)[C@@H]2CCCN2C(=O)[C@@H](NC(=O)[C@H](C)N)CSSC[C@@H](C(=O)O)NC(=O)[C@H]([C@@H](C)CC)NC(=O)[C@@H](CCCNC(=N)N)NC(=O)[C@H](CCCNC(=N)N)NC(=O)CNC(=O)[C@@H]([C@@H](C)CC)NC(=O)[C@H](CCCNC(=N)N)NC(=O)[C@H](CCCCN)NC(=O)[C@H](C)NC(=O)[C@H](CCCCN)NC(=O)CNC(=O)[C@H](CCCNC(=N)N)NC(=O)[C@H](Cc2ccc(O)cc2)NC(=O)[C@H]([C@@H](C)O)NC(=O)CNC(=O)[C@H](CCC(N)=O)NC1=O | 2 (≈ 5.47 µg/mL) | Active | 150 µM | 1 (≈ 2.74 µg/mL) | Active |  |  |
| CC[C@@H](C)[C@H]1NC(=O)[C@H](CCCCN)NC(=O)[C@H]([C@@H](C)O)NC(=O)[C@H](Cc2ccccc2)NC(=O)[C@@H]([C@H](C)CC)NC(=O)[C@@H]2CCCN2C(=O)[C@@H](NC(=O)[C@H](C)N)CSSC[C@@H](C(=O)N[C@@H](CCCNC(=N)N)C(=O)O)NC(=O)[C@H](CCCCN)NC(=O)[C@H](C)NC(=O)[C@@H](CCCNC(=N)N)NC(=O)CNC(=O)[C@@H](CCCNC(=N)N)NC(=O)[C@H](Cc2ccc(O)cc2)NC(=O)[C@H]([C@@H](C)O)NC(=O)CNC(=O)[C@H](CCC(N)=O)NC1=O (H-ACP[dI]FTK[dI]QGTY[dR]G[dR]AKCR-OH; disulfide 2-18) | 5 (≈ 10.8 µg/mL) |  | inactive | 5 (≈ 10.8 µg/mL) |  | Active |  |
| CC[C@H](C)[C@@H]1NC(=O)[C@H](CCCCN)NC(=O)[C@H]([C@@H](C)O)NC(=O)[C@H](Cc2ccccc2)NC(=O)[C@H]([C@@H](C)CC)NC(=O)[C@@H]2CCCN2C(=O)[C@@H](NC(=O)[C@H](C)N)CSSC[C@@H](C(=O)N[C@@H](CCCNC(=N)N)C(=O)O)NC(=O)[C@H](CCCCN)NC(=O)[C@H](C)NC(=O)[C@H](CCCNC(=N)N)NC(=O)CNC(=O)[C@H](CCCNC(=N)N)NC(=O)[C@H](Cc2ccc(O)cc2)NC(=O)[C@H]([C@@H](C)O)NC(=O)CNC(=O)[C@H](CCC(N)=O)NC1=O (H-ACPIFTKIQGTYRGRAKCR-OH; disulfide 2-18) | 5 (≈ 10.8 µg/mL) |  |  | 5 (≈ 10.8 µg/mL) |  | Active |  |
| CC[C@H](C)[C@H](NC(=O)CNC(=O)[C@H](CCCNC(=N)N)NC(=O)[C@@H](NC(=O)[C@@H](NC(=O)[C@@H](NC(=O)CNC(=O)[C@H](Cc1ccc(O)cc1)NC(=O)[C@H](CCCNC(=N)N)NC(=O)[C@H](Cc1ccc(O)cc1)NC(=O)[C@H](CCC(=O)O)NC(=O)[C@@H](NC(=O)[C@H](CO)NC(=O)[C@H](Cc1ccc(O)cc1)NC(=O)[C@H](CO)NC(=O)[C@H](CCCNC(=N)N)NC(=O)[C@H](CCCNC(=N)N)NC(=O)[C@H](Cc1cnc[nH]1)NC(=O)[C@@H](NC(=O)[C@H](Cc1ccccc1)NC(=O)[C@H](C)NC)[C@@H](C)O)[C@@H](C)O)[C@@H](C)O)[C@@H](C)O)C(C)C)C(=O)N[C@@H](CCCNC(=N)N)C(=O)N[C@@H](Cc1cnc[nH]1)C(=O)N[C@@H](CCCNC(=N)N)C(=O)N[C@@H](Cc1ccccc1)C(=O)N[C@@H](CC(C)C)C(=O)O (H-[NMeA]FTHRRSYSTEYRYGTTVRGIRHRFL-OH) | 10 (≈ 32.5 µg/mL) |  | inactive | 10 (≈ 32.5 µg/mL) |  |  | inactive |
| CC[C@H](C)[C@H](NC(=O)[C@H](CCCNC(=N)N)NC(=O)[C@H](CC(=O)O)NC(=O)[C@H](CC(C)C)NC(=O)[C@@H](N)CCC(=O)O)C(=O)NCC(=O)N[C@@H](Cc1ccc(O)cc1)C(=O)NCC(=O)N[C@H](C(=O)N[C@@H](C)C(=O)N[C@@H](CCCNC(=N)N)C(=O)N[C@@H](CCCNC(=N)N)C(=O)N[C@H](CCCCN)C(=O)N[C@H](CCCCN)C(=O)N[C@@H](CCCNC(=N)N)C(=O)O)[C@@H](C)O | 60 (≈ 109 µg/mL) |  | inactive | 20 (≈ 36.4 µg/mL) |  |  | inactive |
| CCCCCCCCCCCCCC(=O)N[C@@H](CCC(=O)O)C(=O)N[C@@H](CC(C)C)C(=O)N[C@@H](CC(=O)O)C(=O)N[C@@H](CCCNC(=N)N)C(=O)N[C@H](C(=O)NCC(=O)N[C@@H](Cc1ccc(O)cc1)C(=O)NCC(=O)N[C@H](C(=O)N[C@@H](C)C(=O)N[C@@H](CCCNC(=N)N)C(=O)N[C@@H](CCCNC(=N)N)C(=O)N[C@H](CCCCN)C(=O)N[C@H](CCCCN)C(=O)N[C@@H](CCCNC(=N)N)C(=O)O)[C@@H](C)O)[C@@H](C)CC | 10 (≈ 20.3 µg/mL) |  | inactive | 5 (≈ 10.1 µg/mL) |  |  | inactive |
| CCCCCCCCCCCCCC(=O)N[C@@H](C)C(=O)N[C@@H](Cc1ccccc1)C(=O)N[C@H](C(=O)N[C@@H](CCCNC(=N)N)C(=O)N[C@@H](CCCNC(=N)N)C(=O)N[C@@H](CCCNC(=N)N)C(=O)N[C@@H](CO)C(=O)N[C@@H](Cc1ccc(O)cc1)C(=O)N[C@@H](CO)C(=O)N[C@H](C(=O)N[C@@H](CCC(=O)O)C(=O)N[C@@H](Cc1ccc(O)cc1)C(=O)N[C@@H](CO)C(=O)N[C@@H](Cc1ccc(O)cc1)C(=O)NCC(=O)N[C@H](C(=O)N[C@H](C(=O)N[C@H](C(N)=O)C(C)C)[C@@H](C)O)[C@@H](C)O)[C@@H](C)O)[C@@H](C)O | 20 (≈ 47.1 µg/mL) |  | inactive | 10 (≈ 23.5 µg/mL) |  |  | inactive |
| CC[C@@H](C)[C@H]1NC(=O)[C@H]2CCCN2C(=O)[C@H](NC(=O)[C@@H](C)N)CSSC[C@H](C(=O)O)NC(=O)[C@@H]([C@H](C)CC)NC(=O)[C@@H](CCCNC(=N)N)NC(=O)[C@@H](CCCNC(=N)N)NC(=O)CNC(=O)[C@@H]([C@H](C)CC)NC(=O)[C@@H](CCCNC(=N)N)NC(=O)[C@@H](CCCCN)NC(=O)[C@@H](C)NC(=O)[C@@H](CCCCN)NC(=O)CNC(=O)[C@@H](CCCNC(=N)N)NC(=O)[C@@H](Cc2ccc(O)cc2)NC(=O)[C@@H]([C@H](C)O)NC(=O)CNC(=O)[C@@H](CCC(N)=O)NC(=O)[C@@H]([C@H](C)CC)NC(=O)[C@@H](CCCCN)NC(=O)[C@@H]([C@H](C)O)NC(=O)[C@@H](Cc2ccccc2)NC1=O | 2 (≈ 5.47 µg/mL) | Active | 200 µM | 1 (≈ 2.74 µg/mL) | Active |  | 200 µM |

Source: ChEMBL document CHEMBL4052697, “Chimeric analogs of human β-defensin 1 and θ-defensin disrupt pre-established bacterial biofilms” (2017)
